Results: patent publication US11446287B2, “Compounds and methods for EP300 or CBP modulation and indications therefor” (Opna Immuno-Oncology SA, priority 2019, dated 2022)

These compounds were tested against T1, Recombinant human EP300 containing the bromodomain (EP300-BD (1040-1161)) (Homo sapiens, UniProt Q09472) (assay: EP300 Alphascreen binding assay).
T1 construct: Recombinant human EP300 bromodomain (EP300-BD (1040-1161)); made in house; host or cells: E. coli BL21-CodonPlus (DE3), modified pET vector
T1 sequence (Q09472 1040-1161): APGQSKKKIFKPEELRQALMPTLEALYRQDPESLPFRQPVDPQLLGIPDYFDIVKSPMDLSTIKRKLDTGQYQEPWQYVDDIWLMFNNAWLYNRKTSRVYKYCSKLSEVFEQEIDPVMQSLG
In short: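 Displacement of a biotinylated acetyl-K56 histone H3 peptide from the N-His bromodomain construct (1040-1161) measured by AlphaScreen proximity, beads at 7.5 μg/ml final, read 60 min after addition. Protein, peptide and compound first incubated 1 h at room temperature, pH 7.5 HEPES buffer; IC50 by four-parameter logistic fit.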
`Cc1noc(C)c1-c1cnc2c(-c3cnn(C)c3)c(C(F)(F)F)n([C@@H](C)c3ccccn3)c2c1` [P-0160, (S)-3,5-dimethyl-4-(3-(1-methyl-1H-pyrazol-4-yl)-1-(1-(pyridin-2-yl)ethyl)-2-(trifluoromethyl)-1H-pyrrolo[3,2-b]pyridin-6-yl)isoxazole] showed an IC50 of 0.1 to 1000 nM. `Cc1noc(C)c1-c1cnc2c(-c3cccc(CC(=O)O)c3)c(C(F)(F)F)n([C@@H](C)c3ccccn3)c2c1` [P-0161, (S)-2-(3-(6-(3,5-dimethylisoxazol-4-yl)-1-(1-(pyridin-2-yl)ethyl)-2-(trifluoromethyl)-1H-pyrrolo[3,2-b]pyridin-3-yl)phenyl)acetic acid] was tested, and the IC50 was 0.1 to 1000 nM. For `Cc1noc(C)c1-c1cnc2c(-c3cccc(C(=O)O)c3)c(C(F)(F)F)n([C@@H](C)c3ccccn3)c2c1` [P-0162, (S)-3-(6-(3,5-dimethylisoxazol-4-yl)-1-(1-(pyridin-2-yl)ethyl)-2-(trifluoromethyl)-1H-pyrrolo[3,2-b]pyridin-3-yl)benzoic acid], the IC50 was 0.1 to 1000 nM. `Cc1noc(C)c1-c1cnc2c(C(O)(C3CC3)C3CC3)cn(-c3ccc(C(=O)O)cc3OC(F)(F)F)c2c1` [P-0163, 4-(3-(dicyclopropyl(hydroxy)methyl)-6-(3,5-dimethylisoxazol-4-yl)-1H-pyrrolo[3,2-b]pyridin-1-yl)-3-(trifluoromethoxy)benzoic acid] showed an IC50 of 0.1 to 1000 nM. `Cc1noc(C)c1-c1cnc2c(-c3cc(C(=O)O)ccc3Cl)cn(C(C)(c3ccccn3)c3ccccn3)c2c1` [P-0164, 4-chloro-3-(1-(1,1-di(pyridin-2-yl)ethyl)-6-(3,5-dimethylisoxazol-4-yl)-1H-pyrrolo[3,2-b]pyridin-3-yl)benzoic acid] gave an IC50 of 0.1 to 1000 nM. Compound `CCOc1cc(C(=O)O)cc(OCC)c1-n1cc(C(O)(C2CC2)C2CC2)c2ncc(-c3c(C)noc3C)cc21` [P-0165, 4-(3-(dicyclopropyl(hydroxy)methyl)-6-(3,5-dimethylisoxazol-4-yl)-1H-pyrrolo[3,2-b]pyridin-1-yl)-3,5-diethoxybenzoic acid] has an IC50 of 0.1 to 1000 nM. Compound `Cc1noc(C)c1-c1cnc2c(-c3cc(C(=O)O)ccc3C#N)cn(C(C)(c3ccccn3)c3ccccn3)c2c1` [P-0166, 4-cyano-3-(1-(1,1-di(pyridin-2-yl)ethyl)-6-(3,5-dimethylisoxazol-4-yl)-1H-pyrrolo[3,2-b]pyridin-3-yl)benzoic acid] has an IC50 of 0.1 to 1000 nM. `C#Cc1ccccc1-c1cn(C(C)(c2ccccn2)c2ccccn2)c2cc(-c3c(C)noc3C)cnc12` [P-0167, 4-(1-(1,1-di(pyridin-2-yl)ethyl)-3-(2-ethynylphenyl)-1H-pyrrolo[3,2-b]pyridin-6-yl)-3,5-dimethylisoxazole] was tested, and the IC50 was 0.1 to 1000 nM. Work on `CCOc1cc(C(=O)O)cc(OCC)c1-n1cc(-c2ccccc2)c2ncc(-c3c(C)noc3C)cc21` [P-0168, 4-(6-(3,5-dimethylisoxazol-4-yl)-3-phenyl-1H-pyrrolo[3,2-b]pyridin-1-yl)-3,5-diethoxybenzoic acid] yielded an IC50 of 0.1 to 1000 nM. In the case of `Cc1noc(C)c1-c1cnc2c(-c3ccccc3C#N)cn(C(C)(c3ccccn3)c3ccccn3)c2c1` [P-0169, 2-(1-(1,1-di(pyridin-2-yl)ethyl)-6-(3,5-dimethylisoxazol-4-yl)-1H-pyrrolo[3,2-b]pyridin-3-yl)benzonitrile], the IC50 is reported as 0.1 to 1000 nM.
